# Experimental data from patent US20090018149A1, “4,5,6,7-tetrahydrobenzo[b]thiophene derivatives and methods for medical intervention against mycobacterial infections” (priority 2002, published 2009).
# Test system: M. smegmatis expressing wildtype PknG
# Type: cell-based, Mycobacterium smegmatis
# Conditions: 10 μM compound, RAW cells, 24 h postinfection; mutant or vector control cleared up to 85%, wild type pknG only 25%
smiles,measurement,value
"NC(=O)c1c(NC(=O)C2CC2)sc2c1CCCC2 [Compound 237, 2-(Cyclopropanecarbonyl-amino)-4,5,6,7-tetrahydro-benzo[b]thiophene-3-carboxylic acid amide]",clearance of PknG expressing M. smegmatis in macrophages,as efficient as observed with the mutant or vector control transformants
